Question: Which melting point does the source give for `CCOC(=O)C(=CNc1ccccc1)C(=O)c1cc(F)c(Cl)c([N+](=O)[O-])c1Cl` here?
Answer: 133 to 135 °C

Question: For `COc1ccc2ccccc2c1C(Nc1ccccc1C)C(=O)O` (configuration not stated), which melting point is on record?
Answer: 188 °C

Question: With `CNC(=O)c1ccc(-c2ccc3nnn(Cc4c(F)ccc(F)c4Cl)c3n2)cc1F` as the molecule, how does the melting point read?
Answer: 213 to 215 °C

Question: Which melting point does the source give for `CC(C)(C)OC(=O)c1cc(O[C@H]2CC[C@H](NC(=O)Nc3ccc(Cl)c(C(F)(F)F)c3)CC2)ccn1` here?
Answer: 101 to 117 °C

Question: For `CC1Cc2cccc(-c3cccc4ccccc34)c2C1=O` (configuration not stated), which melting point is on record?
Answer: 104 to 105 °C

Question: With `CCN1C(=O)C(C)(C)C(=O)N(C)c2cc(CN(CCn3ccc4oc(C)cc4c3=O)Cc3ccccc3-n3cccn3)ccc21` as the molecule, how does the melting point read?
Answer: 123 to 130 °C

Question: Which melting point does the source give for `COC(=O)Nc1nc2ccc(S(=O)c3ccccc3)cn2c1Br` (configuration not stated) here?
Answer: 150 to 152 °C

Question: With `CCCCCCc1cc2c(cc1O)C(=O)CCC2` as the molecule, how does the melting point read?
Answer: 125 °C

Question: With `COc1cc(C=CN(C)C)c([N+](=O)[O-])cc1OC` as the molecule, how does the melting point read?
Answer: 125 to 126 °C

Question: With `COc1ccc(-c2nc(-c3ncc4c(n3)CCCC4)ccc2C)nc1` as the molecule, how does the melting point read?
Answer: 157 to 158 °C

Question: Which melting point does the source give for `O=c1ccn(-c2ccc(-c3ccc(=O)[nH]n3)cc2)cc1` here?
Answer: 339 to 341 °C

Question: For `CON=C(C(=O)OC)c1ccccc1COc1ccc2c(c1)OCC2=NOC`, which melting point is on record?
Answer: 108 to 110 °C

Question: With `O=C(c1ccccc1Cl)c1cc(Cl)ccc1-n1cnnc1CCl` as the molecule, how does the melting point read?
Answer: 139 to 140 °C

Question: Which melting point does the source give for `CCOP(=O)(OCC)C(Nc1nc2ccccc2[nH]1)P(=O)(OCC)OCC` here?
Answer: 169 to 170 °C

Question: With `O=C(O)CCCCCCCn1c(Cc2ccccc2)nc(-c2ccccc2)c1-c1ccccc1` as the molecule, how does the melting point read?
Answer: 148 to 149 °C

Question: Which melting point does the source give for `CN1CCc2c(O)ccc(Cl)c2CC1` here?
Answer: 178 to 180 °C

Question: With `CC(C)(C)c1ccc(CI)cc1[N+](=O)[O-]` as the molecule, how does the melting point read?
Answer: 98 to 99 °C

Question: Which melting point does the source give for `CCOC(CNC(=O)N(N=Cc1ccccc1)c1cc(Cl)c(Cc2ccc(Cl)cc2)c(Cl)c1)OCC` here?
Answer: 138 to 139 °C

Question: For `O=S(=O)(c1ccc(OCCCBr)cc1)c1c(-c2ccccc2)cn2ccccc12`, which melting point is on record?
Answer: 199 °C

Question: For `CC(=O)CC(=S)N1N=C(c2ccc([N+](=O)[O-])cc2)c2cc3c(cc2CC1C)OCO3` (configuration not stated), which melting point is on record?
Answer: 178 to 185 °C

Question: With `CCOC(=O)NC1Cc2ccccc2C1Sc1ccccc1` (configuration not stated) as the molecule, how does the melting point read?
Answer: 60.5 to 62 °C

Question: With `CCCCC1(CCCC)CS(=O)(=O)c2ccc(N(C)C)cc2[C@@H](c2ccc(OCc3cccc(CCC(=O)O)n3)cc2)[C@H]1O` as the molecule, how does the melting point read?
Answer: 105 to 107 °C

Question: With `COC(=O)c1cnc(C)n1C` as the molecule, how does the melting point read?
Answer: 38 to 40 °C

Question: Which melting point does the source give for `CC1(C)C(C=CC(=O)Oc2ccccc2)C1C(=O)O` (configuration not stated) here?
Answer: 57 °C

Question: For `CCOC(=O)Cc1c(C)c2ccc(O)cc2oc1=O`, which melting point is on record?
Answer: 167 to 168 °C

Question: Which melting point does the source give for `CCOC(=O)c1ccc(-c2cc(O)c(SCCc3ccccc3)c(=O)o2)cc1` here?
Answer: 156 to 158 °C

Question: For `Nc1cc(=O)n(Cc2ccccc2)c(=O)n1-c1cccc([N+](=O)[O-])c1`, which melting point is on record?
Answer: 256 to 260 °C

Question: For `CS(=O)(=O)N1CCC(c2nc3cc(-c4ccc(-n5cnnn5)cc4F)ccc3o2)CC1`, which melting point is on record?
Answer: 209 to 212 °C

Question: For `COc1cc(COc2nn(-c3ccccc3)cc2/C=C/c2csc(CO)n2)ccc1OCc1nc(-c2ccc(CC(=O)O)cc2)oc1C`, which melting point is on record?
Answer: 204 to 205 °C

Question: Which melting point does the source give for `COC(=O)c1cccnc1Cn1cccc1C=O` here?
Answer: 91 to 93 °C

Question: For `O=CCCc1cnc(-c2ccccc2)s1`, which melting point is on record?
Answer: 192 °C

Question: Which melting point does the source give for `CON=C1CCc2c(cccc2OCC(O)CN2CCN(C(c3ccccc3)c3ccccc3)CC2)C1` (configuration not stated) here?
Answer: > 183 °C

Question: With `CN(C)CCN(C(=O)c1ccc([N+](=O)[O-])cc1Br)c1ccnc2cc3c(cc12)OCO3` as the molecule, how does the melting point read?
Answer: 111 to 112 °C

Question: Which melting point does the source give for `CCOC(=O)c1sc(NC(C)=O)nc1CCc1ccc(NC(=O)OC(C)(C)C)cc1` here?
Answer: 213 to 214 °C

Question: With `COc1ccc(Sc2nccn2C)c([N+](=O)[O-])c1` as the molecule, how does the melting point read?
Answer: 117 to 120 °C

Question: Which melting point does the source give for `O=C(O)CCc1cccc(OCc2ccccc2Cl)c1OCc1ccccc1Cl` here?
Answer: 131 to 132 °C

Question: With `COc1c(Br)ccc2ccc(Cl)nc12` as the molecule, how does the melting point read?
Answer: 130 to 132 °C

Question: With `CNC(=S)N1CCSC1c1ccccc1OCCN1CCN(c2ccccc2)CC1` (single isomer, unassigned; (-)) as the molecule, how does the melting point read?
Answer: 144 to 146 °C

Question: With `COC1CCC2C3CCC4=CC(=O)C(C)CC4(C)C3CCC12C` (configuration not stated) as the molecule, how does the melting point read?
Answer: 130 to 145 °C

Question: Which melting point does the source give for `COC(=O)C1Cc2c(n(C)c3ccccc23)CN1C(=S)SCc1cccs1` (configuration not stated) here?
Answer: 139 to 140 °C

Question: With `CCCCOc1cc(OCCCC)c(C(=O)O)c(C(F)(F)F)n1` as the molecule, how does the melting point read?
Answer: 90 to 93.5 °C

Question: Which melting point does the source give for `O=C(Nc1ccccc1)c1ccc(F)c(Nc2ccccc2)c1` here?
Answer: 132 to 133 °C

Question: With `Cc1nc(-n2cc(CCCc3ccccc3)nn2)sc1C(=O)NCc1ccc(F)c(F)c1` as the molecule, how does the melting point read?
Answer: 81 to 84 °C

Question: For `COC(=O)c1ccc(CNC(=O)c2c(N)cc(Cl)cc2Cl)cc1`, which melting point is on record?
Answer: 132 to 137 °C

Question: With `COc1cc2[nH]c(=O)c(-c3csc(-c4cccnc4)n3)c(N)c2cc1OC` as the molecule, how does the melting point read?
Answer: > 250 °C

Question: With `CCOC(=O)c1cc(SCc2ccccc2)c(Sc2ccccc2)c(S(N)(=O)=O)c1` as the molecule, how does the melting point read?
Answer: 151 to 152 °C

Question: With `CC(COc1ccccc1C1NC(C(=O)O)CS1)O[N+](=O)[O-]` (configuration not stated) as the molecule, how does the melting point read?
Answer: 127 to 130 °C

Question: For `COc1ccc2c(c1Cl)Sc1ccccc1N2C`, which melting point is on record?
Answer: 136 °C

Question: With `CC(CN(O)C(N)=O)OCc1cc2ccccc2s1` (configuration not stated) as the molecule, how does the melting point read?
Answer: 132 to 133 °C

Question: With `N=C1SCCN1c1ccc(N)cc1` as the molecule, how does the melting point read?
Answer: 148 °C

Question: For `CC(=O)OC1CSC(Oc2ccc(-c3cncnc3)nc2Cl)C(OC(C)=O)C1OC(C)=O` (configuration not stated), which melting point is on record?
Answer: 168 °C

Question: Which melting point does the source give for `C[C@]12CC[C@@H]3c4ccc(O)cc4CC[C@H]3[C@@H]1CCC2=C(F)F` here?
Answer: 154 to 156 °C

Question: Which melting point does the source give for `CC(=O)SCC(CC(C)C)C(=O)Nc1cccc(C(=O)O)c1C` (configuration not stated) here?
Answer: 154 to 156 °C

Question: Which melting point does the source give for `COC(=O)c1cc2cc(OC)ccc2n1C` here?
Answer: 200 °C

Question: For `CC(C)(C)C(=O)C(Br)C(c1ccc(Cl)cc1)S(=O)(=O)c1ccccc1` (configuration not stated), which melting point is on record?
Answer: 167 to 168 °C

Question: Which melting point does the source give for `Cc1nc2c([nH]1)CCCC2=O` here?
Answer: 229 °C

Question: For `CCCCCCCCCCCCCCCCCCOC1OCC(CNC(=O)C(F)(F)F)O1` (configuration not stated), which melting point is on record?
Answer: 80 °C

Question: With `CCOC(=O)C(N)=NOC(=O)c1ccc(F)cc1` as the molecule, how does the melting point read?
Answer: 196 to 198 °C

Question: For `O=C1c2cccc3cccc(c23)C(O)N1CCN1CCN(c2ccccn2)CC1` (configuration not stated), which melting point is on record?
Answer: 174 to 175 °C

Question: Which melting point does the source give for `CC(COc1ccc(O)c(C(N)=O)c1)N(Cc1ccccc1)CC(O)COc1ccc(OCc2ccccc2)cc1` (configuration not stated) here?
Answer: 149 to 160 °C

Question: With `CC(C)c1ccc(-c2ccc(-c3cccc(C(=O)O)c3)o2)cc1` as the molecule, how does the melting point read?
Answer: 172 to 176 °C

Question: Which melting point does the source give for `NN1C=NNC1=Cc1ccccc1` here?
Answer: 171 to 173 °C

Question: With `Cc1cccn2ccnc12` as the molecule, how does the melting point read?
Answer: 150 to 152 °C

Question: Which melting point does the source give for `CN1Cc2c(-c3ncc(CN4CCCCC4)o3)ncn2-c2ccc(F)cc2C1=O` here?
Answer: 191 to 193 °C

Question: For `CC(=O)Nc1cccc2c1C(=O)CCCC2`, which melting point is on record?
Answer: 155 to 162 °C

Question: For `CON=C(CBr)c1ccc(Cl)cc1`, which melting point is on record?
Answer: 57 to 60 °C

Question: Which melting point does the source give for `O=C(NO)[C@@H](CC(=O)N1CCOCC1)NS(=O)(=O)c1ccc(Oc2ccccc2)cc1` here?
Answer: 161 to 163 °C

Question: With `COC(=O)c1ccc2c(nc(C)n2C)c1C1=NC(C)(C(C)C)C(=O)N1` (configuration not stated) as the molecule, how does the melting point read?
Answer: 240 to 242 °C

Question: With `O=C1CC(c2cccc(-c3nc(C(=O)NCCO)co3)c2)=Nc2ccc(-n3cccc3)cc2N1` as the molecule, how does the melting point read?
Answer: 242 to 244 °C

Question: For `CCOC(=O)c1cn(-c2nc[nH]n2)cn1`, which melting point is on record?
Answer: 220 to 222 °C

Question: With `Cc1ccn(-c2ncc(C(=O)N3Cc4cccn4Cc4ccccc43)c(C(F)(F)F)n2)n1` as the molecule, how does the melting point read?
Answer: 202 to 204 °C

Question: Which melting point does the source give for `Cn1nc(-c2ccc(F)cc2)c(-c2ccncc2)c1Br` here?
Answer: 174 °C

— a melting point compilation (Tetko et al.; mined from patent text by program, amines drawn as free bases though some values may be those of a salt)
